Molecules are shown by their SMILES.

In one experiment the test system is caspase-8, PARP. The experiment in a line: Western blot analysis of caspase-8 processing and PARP cleavage. As to conditions: MDA-MB-231, within 24 h. On the technique in general: A western blot detects proteins with antibodies after separation by electrophoresis.
The test system of experiment [1] is MDA-MB-231 breast cancer cell line. The experiment in a line: induction of cell death, trypan blue exclusion assay. In kind it is cell-based, human. Particulars: for induction of cell death (in words): different concentrations, 48 hours.

Take `CN[C@@H](C)C(=O)N[C@H]1Cc2ccccc2[C@H]2CC[C@@H](C(=O)N[C@@H]3CCCc4ccccc43)N2C1=O` [Compound 6]: the “lowest concentration inducing processing of caspase-8 and cleavage of PARP” value in the experiment on caspase-8, PARP is 100 nM. In experiment [1], the “concentration that effectively induces cell death” value amounted to 100 nM and the “induction of cell death (in words)” value is “most effective”.

Consider `CN[C@@H](C)C(=O)N[C@H]1Cc2ccccc2[C@H]2CCC[C@@H](C(=O)NC(c3ccccc3)c3ccccc3)N2C1=O` [Compound 8], for which the “induction of cell death (in words)” value in experiment [1] is “least effective”.

Turning to `CN[C@@H](C)C(=O)N[C@H]1Cc2ccccc2[C@H]2CC[C@@H](C(=O)NC(c3ccccc3)c3ccccc3)N2C1=O` [Compound 5], in experiment [1], the “induction of cell death (in words)” value is listed as “capable of inducing cell death in a dose-dependent manner”.

For the origin of these results see article PMC2662380 (Journal of medicinal chemistry, 2008).
